In patent US5507949A, “Supported liquid membrane and separation process employing same” (Monsanto Company, priority 1993, dated 1996):
Read-outs that look alike come from different tables or passages of the source.

Legend:
[1] = Source text: (§1) A flat sheet microporous polypropylene membrane (Celgard 2400, 38% porosity, 0.05 micron average pore size, 25 micron thick) was wet with polypropylene glycol (PPG) MW 4000 obtained from the Dow Chemical Company by putting a few drops of PPG on the membrane sheet and spreading it out. […] The excess PPG was wiped off and the membrane with immobilized PPG was ready for use. […] The same wetting procedure can be used for hollow fiber membranes. In a module form, the fibers can be wet by pumping PPG slowly through the lumens of the fibers. The excess PPG left in the fibers can thereafter be removed by either blowing air or passing water through the tube side of the fibers.
A flat sheet immobilized liquid membrane prepared according to Example 1 was placed between the two compartments of a cell. Surface area of the membrane was 8 cm^2. One cell compartment contained an aqueous waste solution containing para-nitrophenol (PNP) at a concentration of 4000 to 5000 mg/L and 20 wt % KCl. The other compartment contained 0.1N NaOH as an aqueous strip solution. Both solutions were circulated by pumps. Total volume of liquid on each side of the membrane was 100 ml. The system was at room temperature. PNP levels in both compartments were measured periodically using a spectrophotometric method.

Remark: listed apart in the source
[2] = Partition coefficient between polyalkylene glycol (PPG) and water
Source text: *Kp = Acid concentration in PPG .div. Acid Concentration in H2 O at […]

[3] = Stability/integrity of supported liquid membrane; format: physicochemical
Source text: as §1
The process of Example 2 was repeated but with octanol, a typical organic solvent with high affinity for p-nitrophenol, as the liquid membrane.

[4] = Transport across hollow fiber supported liquid membrane (Examples 5 and 6); format: physicochemical; conditions: Celgard X20 400 hollow fibers; after 3 hours (Example 5)
Source text: Celgard X20 400 hollow fibers (40% porosity, 0.065 micron pore size, internal diameter 400 microns, outer diameter 460 microns) were potted into a module containing 54 fibers that were 18 cm long. The total membrane area was 120 cm^2. PPG MW 4000 was pumped through the lumens of the fibers to wet them. Water was then pumped through to remove excess PPG. The module having PPG immobilized in the fiber walls was then used to remove PNP from an aqueous solution containing approximately 4000 to 5000 mg/L PNP and 20 wt % KCl. The aqueous stripping solution was 0.1N NaOH. The set up was similar to that used in Example 2. The initial rate of PNP transport across the hollow fiber membrane was about 4 mg/hr-cm^2 membrane area. After 3 hours of operation PNP concentration in the stripping side went up to 4400 mg/L and that in the feed side dropped to 45 mg/L.
Using a procedure similar to that of Example 5 but using polysulfone hollow fibers (Permea, St. Louis) as the membrane support, selective extraction of PNP from an aqueous waste solution was examined. Ultrafiltration polysulfone hollow fibers (18 cm long, MW cutoff 160,000, OD 1150 microns, ID 870 microns) were potted into a module containing 10 fibers that were 17.6 cm long. The effective membrane area was about 48 cm^2. The initial rate of transport was about 1 mg PNP/hr-cm^2 membrane area.

[5] = known octanol/water system; cited from earlier work
[6] = 65° C. (Example 26)
Description: Celgard 2500 (flat sheet microporous polypropylene membrane) was wetted with PPG-4000 and sandwiched between two compartments of a membrane cell as described in Example 2. One compartment was filled with a aqueous solution containing 5000 mg/L butanol. Air was swept in the other compartment to remove butanol diffusing through the membrane, thus creating driving force for further transport. The system was operated at 65° C.

[7] = 30 wt. % Pluronic L-81 in PPG-4000 (Example 23)
[8] = PPG in Celgard 2400, strip 0.1N NaOH, room temperature (Table 3)
[9] = 5 wt % acid, 20 wt % KCl, strip 0.1N NaOH, room temperature (Table 1)
[10] = PPG MW about 4000 in CELGARD 2400, 20 wt % NaCl
[11] = Celgard 2402, overnight (Example 4)
[12] = Celgard 2500, overnight (Example 3)
[13] = overnight, feed pH 5.4, 20 wt. % KCl (Example 29)

SMILES: O=C1C=CC(=O)N1 [maleimide]
- change of initial rate of maleimide transport vs Example 22 [1, 7]: more than doubled
- initial rate of maleimide transport [1, 7]: 2.5 mg/hr-cm^2
- initial rate of maleimide transport ([1]; PPG-4000, 7,000 mg/L maleimide, 40 wt. % ammonium sulfate (Example 22)): about 1.2 mg/hr-cm^2

SMILES: O=CO [Formic Acid (C1), Formic Acid]
- Permeability [8]: 5.5 ×10⁻⁶ cm/s
- Rate (pH 1.6): 1.0
- Rate (pH 5): 0.026
- Partition Coeff. (Kp) ([2]; acid concentration in PPG ÷ acid concentration in H2O at equilibrium): 0.45
- Initial Rate [1]: 1.0 mg/hr-cm^2

SMILES: CCOC(=O)c1ccccc1 [ethyl benzoate]
- permeability of ethyl benzoate through the membrane ([1]; PPG membrane, feed pH 7.1, strip 0.1N NaOH, 23° C. (Example 33)): about 9×10^-4 cm/sec
- ethyl benzoate concentration in the feed side ([1]; overnight, initial 500 mg/L (Example 33)): 1 mg/L

SMILES: CCC(=O)O [Propionic Acid (C3), Propionic Acid]
- Permeability (not told): 33 ×10⁻⁶ cm/s
- Initial Rate [1, 9]: 5.4 mg/hr-cm^2

SMILES: [Cl-].[Na+] [NaCl]
- salt passage through liquid membrane [3, 10]: essentially no salt to pass through

SMILES: O=[N+]([O-])c1ccc(O)cc1 [PNP, para-nitrophenol]
- PNP concentration in feed side [4]: 45 mg/L
- PNP concentration in stripping side [4]: 4400 mg/L
- K PPG-4000/Water [2]: 300
- PNP concentration in feed side [1, 11]: 10 mg/L
- PNP concentration in stripping side [1, 11]: 4900 mg/L
- PNP concentration in feed side [1, 12]: 5 mg/L
- PNP concentration in stripping side [1, 12]: 4430 mg/L
- separation factor for PNP over KCl ([1]; Example 2): at least 2000
- PNP concentration difference caustic side vs waste side ([1]; Example 2, overnight): over 1000 times
- PNP concentration in caustic side ([1]; Example 2, overnight): about 3800 mg/L
- PNP concentration in waste side ([1]; Example 2, overnight, initial 4000 to 5000 mg/L): about 3 mg/L
- PNP level in waste solution ([1]; Igepal CO-210 liquid membrane, after 24 hours, initial 4397 ppm (Example 2f)): 10 ppm
- ratio of PNP concentration caustic side over waste side ([1]; PBG MW 2000, overnight (Example 20)): about 1300
- PNP level in waste solution ([1]; carbamate-functional liquid membrane drawing 12, after 5.5 hours, initial 4300 ppm (Example 2c)): 25 ppm
- PNP level in waste solution ([1]; carbamate-functional liquid membrane drawing 12, overnight (Example 2c)): 5 ppm
- PNP level in waste solution ([1]; castor oil liquid membrane, after 96 hours, initial 4272 ppm (Example 2e)): 4 ppm
- PNP removal from the feed solution [1, 13]: about 99%
- PNP ratio (concentration of strip side to feed side) ([1]; polybutylene glycol MW approximately 5000, overnight (Example 21)): 120
- PNP level in waste solution ([1]; strip 50 wt. % PEG-200, after about 9 hours, initial 4449 ppm (Example 2b)): 192 ppm
- PNP level in waste solution ([1]; strip PEG-200, after about 8 hours, initial 4700 ppm (Example 2a)): 12 ppm
- PNP level in waste solution ([1]; strip PEG-200, after two days, initial 4700 ppm (Example 2a)): 0.6 ppm

SMILES: CCCC(=O)O [Butyric Acid (C4), Butyric Acid]
- Permeability (not told): 42 ×10⁻⁶ cm/s

SMILES: [Cl-].[K+] [KCl]
- chloride concentration on waste side ([1]; Example 2): over 100 g/L
- chloride content in caustic strip solution ([1]; Example 2, overnight, measure of KCl transport): 0.049 g/L

SMILES: O [water]
- water movement (diffusion) through liquid membrane [3, 10]: very little water movement

SMILES: N.N.O=S(=O)(O)O [ammonium sulfate]
- ammonium sulfate detected in the stripping solution [1]: no ammonium sulfate was detected

SMILES: CCCCC(=O)O [Valeric Acid (C5), Valeric Acid]
- Permeability (not told): 160 ×10⁻⁶ cm/s
- Partition Coeff. (Kp) [2]: 24.6

SMILES: O=C(O)c1ccccc1 [benzoic acid]
- benzoic acid passage through membrane ([1]; feed pH 5.4 (Example 29)): virtually blocked by the membrane
- remaining in feed / transported ([1]; overnight, feed pH 2.5 (Example 30)): virtually gone from the feed
- benzoic acid detected in aqueous strip solution [1, 13]: < 1 % of feed
- benzoic acid level in strip solution ([1]; overnight, from hydrolysis of ethyl benzoate (Example 33)): about 420 mg/L

SMILES: C=CC(=O)O [Acrylic Acid]
- K PPG-4000/Water [2]: 5
- K Octanol/Water [5]: 1.35

SMILES: CCCCCC(=O)O [Caproic Acid (C6), Caproic Acid]
- Permeability [8]: 400 ×10⁻⁶ cm/s
- Partition Coeff. (Kp) [2]: 83
- initial rate of caproic acid transport relative to PPG membrane ([1]; carbamate-functional liquid membrane drawing 12 (Example 2d)): about the same as with PPF-4000
- caproic acid level in waste solution ([1]; carbamate-functional liquid membrane drawing 12, after 23 hours, initial 1800 ppm (Example 2d)): 13 ppm

SMILES: Oc1ccccc1 [Phenol]
- K PPG-4000/Water [2]: 150
- concentration in the feed [1]: about 5 mg/L
- concentration in the stripping solution [1]: about 5050 mg/L

SMILES: Nc1ccc([N+](=O)[O-])cc1 [p-nitroaniline]
- initial rate of PNA transport ([1]; feed pH 9, ~500 mg/L, strip 0.1N nitric acid (Example 8)): about 1.5 mg/hr-cm^2
- PNA level in the feed ([1]; overnight (Example 8)): 70 mg/L
- PNA level in the stripping solution ([1]; overnight (Example 8)): 450 mg/L

SMILES: CC(=O)O [Acetic Acid (C2), Acetic Acid]
- Initial Rate [1, 9]: 1.6 mg/hr-cm^2

SMILES: CCCCCCCCO [octanol, reference compound]
- time to breakdown of immobilized liquid membrane ([3]; octanol liquid membrane in operation (Example 25)): about 10 minutes

SMILES: CCCCO [butanol]
- initial rate of butanol removal ([6]; PPG-4000 in Celgard 2500, air sweep): about 7 mg/hr-cm^2
- butanol concentration in the aqueous solution ([6]; after about 5 hr, initial 5000 mg/L): about 400 mg/L

SMILES: N#C/C=C/C#N [fumaronitrile]
- initial rate of fumaronitrile transport [1]: about 0.5 mg/hr-cm^2
